One substance from paper PMC4995097, “Talin-KANK1 interaction controls the recruitment of cortical microtubule stabilizing complexes to focal adhesions” (eLife, 2016) can be followed below.

What all share (type): cell-based, human
The subject of assay [1] is focal adhesions in HeLa cells. Description: FA number. The protocol: (§1) HeLa Kyoto cell line was described previously ([Lansbergen et al., 2006]; [Mimori-Kiyosue et al., 2005]). HEK293T cells were purchased from ATCC; culture and transfection of DNA and siRNA into these cell lines was performed as previously described ([van der Vaart et al., 2013]). HaCaT cells were purchased at Cell Line Service (Eppelheim, Germany) and cultured according to manufacturer’s instructions. The cell lines were routinely checked for mycoplasma contamination using LT07-518 Mycoalert assay (Lonza, Switzerland).The identity of the cell lines was monitored by immunofluorescence-staining-based analysis with multiple markers. Blebbistatin was purchased from Enzo Life Sciences and used at 50 μM. Serum starvation in HeLa cells was done for 48 hr and focal adhesion assembly was stimulated by incubation with fetal calf serum-containing medium with or without blebbistatin for 2 hr. ROCK1 inhibitor Y-27632 was purchased at Sigma-Aldrich and used at 1 or 10 μM. Double stable HeLa cell line expressing GFP-KANK1 and TagRFP-paxillin was made by viral infection. We used a pLVIN-TagRFP-paxillin-based lentivirus and a pQC-GFP-KANK1-based retrovirus packaged in HEK293T cells using respectively Lenti-X HTX packaging and pCL-Ampho vectors. Antibiotic selection was applied to cells 48 hr after infection using 500 μg/ml G418 (Geneticin, Life Technologies) and 1 μg/ml puromycin (InvivoGen).
For presentation, images were adjusted for brightness and processed by Gaussian blur and Unsharp mask filter using ImageJ 1.47v (NIH). Fluorescence profiles are values measured by line scan analysis in ImageJ, normalized by background average fluorescence, expressed as a factor of the baseline value obtained for individual channel and plotted as a function of maximum length factor of the selection line (distance ratio). Protein clustering at the cell edge is the ratio of the total fluorescence in the first 5 μm from the cell edge to the next 5 μm measured by line scan analysis in ImageJ after thresholding for cell outline marking and out-of-cell region value assigned to zero. The results were plotted as percentage of control condition average value. FA counting and area measurement was performed using Analyze Particles under ImageJ on focal adhesion binary mask obtained after Gaussian blur/threshold-based cell outline marking and background subtraction (rolling ball radius, 10 pixels). KANK1/talin colocalization was analyzed using Pearson R value provided by Colocalization Analysis plugin under FiJi-ImageJ and a 3 μm diameter circular ROI centered on talin clusters detected by immunofluorescent staining.

Assay [2] has as its system KANK1 at the cell edge of HeLa cells. Put plainly: Peripheral clustering of KANK1. The protocol: as §1
(§2) Antibodies against HA and GFP tags, and liprin β1 used for Western blot analysis were previously described ([van der Vaart et al., 2013]). Rabbit antibodies against KANK1 (HPA005539) and KANK2 (HPA015643) were purchased at Sigma-Aldrich. Western blot analysis of KANK1 was performed using rabbit polyclonal KANK1 antibody (A301-882A) purchased at Bethyl Laboratories. Talin immunofluorescence staining was performed using mouse monoclonal 8d4 antibody (Sigma-Aldrich). Western blot analysis of talin 1 and 2 expression was performed using respectively the isotype specific mouse monoclonal 97H6 (Sigma-Aldrich) and 68E7 (Abcam) antibodies. Ku80 (7/Ku80) antibody was purchased from BD Biosciences. Immunofluorescence staining of KANK1, LL5β, liprin β1, KIF21A and CLASP2 in HeLa and HaCaT cells was performed using the antibodies and procedures previously described ([Lansbergen et al., 2006]; [van der Vaart et al., 2013]). F-actin was stained using Alexa Fluor 594-conjugated phalloidin (Life Technologies). Phospho-tyrosine mouse antibody (PT-66) was purchased from Sigma-Aldrich and rabbit FAK phospho-tyrosine 397 was purchased from Biosource.
Fixed samples and corresponding immunofluorescence images were acquired using widefield fluorescence illumination on a Nikon Eclipse 80i or Ni upright microscope equipped with a CoolSNAP HQ2 CCD camera (Photometrics) or a DS-Qi2 camera (Nikon) an Intensilight C-HGFI precentered fiber illuminator (Nikon), ET-DAPI, ET-EGFP and ET-mCherry filters (Chroma), Nikon NIS Br software, Plan Apo VC 100x NA 1.4 oil, Plan Apo Lambda 100X oil NA 1.45 and Plan Apo VC 60x NA 1.4 oil (Nikon) objectives. TIRFM-based live cell imaging was performed using the setup described before ([van der Vaart et al., 2013]) or a similar Nikon Ti microscope-based Ilas^2 system (Roper Scientific, Evry, FRANCE) equipped with dual laser illuminator for azimuthal spinning TIRF (or Hilo) illumination, 150 mW 488 nm laser and 100 mW 561 nm laser, 49,002 and 49,008 Chroma filter sets, EMCCD Evolve mono FW DELTA 512x512 camera (Roper Scientific) with the intermediate lens 2.5X (Nikon C mount adapter 2.5X), CCD camera CoolSNAP MYO M-USB-14-AC (Roper Scientific) and controlled with MetaMorph 7.8.8 software (Molecular Devices). Simultaneous imaging of […] was performed as described before ([van der Vaart et al., 2013]) or using the Optosplit III image splitter device (Andor) on the Ilas^2 system.
For presentation, images were adjusted for brightness and processed by Gaussian blur and Unsharp mask filter using ImageJ 1.47v (NIH). […]

Assay [3] concerns LL5β at the cell edge of HeLa cells. Description: Peripheral clustering of LL5β. To be noted: talin1/2-depleted HeLa rescue (Fig 4G); mean, n = 12, SEM 4.85049. On the procedure: as §1, §2
Fixed samples and corresponding immunofluorescence images were acquired using widefield fluorescence illumination on a Nikon Eclipse 80i or Ni upright microscope equipped with a CoolSNAP HQ2 CCD camera (Photometrics) or a DS-Qi2 camera (Nikon) an Intensilight C-HGFI precentered fiber illuminator (Nikon), ET-DAPI, ET-EGFP and ET-mCherry filters (Chroma), Nikon NIS Br software, Plan Apo VC 100x NA 1.4 oil, Plan Apo Lambda 100X oil NA 1.45 and Plan Apo VC 60x NA 1.4 oil (Nikon) objectives. […]

On to “GFP-talin1-G1404L: GFP-tagged mouse talin1 with single point mutation G1404L”, for which the “AV #FA” value in assay [1] (HeLa, TLN1-KD, mTLN1 rescue, mean FA number per cell, Count 12) is 55.3333. Also, the “number and size of focal adhesions (in words)” value in assay [1] (compared to rescue with wild type talin1) was “not significantly different”. The “Peripheral clustering of KANK1, edge ratio, AV” value in assay [2] (talin1/2-depleted HeLa rescued with GFP-talin1 (Fig 3F), mean, n = 12) came to 0.9974. In addition, in assay [2] (talin1/2-depleted HeLa, Figure 3E,F), the “KANK1 distribution, talin rescue (in words)” value is on record as “dispersed over the plasma membrane”. In assay [3], the “Peripheral clustering of LL5β, percentage of control, AV, talin rescue” value is 20.7686 percentage of control condition average value.
